Assay [1] addresses T1, Epidermal growth factor receptor (Homo sapiens, UniProt P00533). Kind of assay: Tested for ability to inhibit autophosphorylation of the Epidermal growth factor receptor in human epidermoid carcinoma cells.
Assay [2] concerns the target T1, Epidermal growth factor receptor. Nature of the assay: Inhibition of phosphorylation of phospholipase C gamma1 by Epidermal growth factor receptor, from human A431 carcinoma cell vesicles.
Assay [3] has the same target. Kind of assay: Tested for inhibition of PLC gamma-derived substrate in Epidermal growth factor receptor stimulated A431 cells.
For assay [4] the target is unchanged. Kind of assay: Tested for inhibition of autophosphorylation in Epidermal growth factor receptor stimulated A431 cells.

By IC50 is commonly meant the concentration at which inhibition is half-maximal. The low end stands for greater potency in that assay, the high end for weaker potency in that assay.

T1 sequence (P00533 whole entry): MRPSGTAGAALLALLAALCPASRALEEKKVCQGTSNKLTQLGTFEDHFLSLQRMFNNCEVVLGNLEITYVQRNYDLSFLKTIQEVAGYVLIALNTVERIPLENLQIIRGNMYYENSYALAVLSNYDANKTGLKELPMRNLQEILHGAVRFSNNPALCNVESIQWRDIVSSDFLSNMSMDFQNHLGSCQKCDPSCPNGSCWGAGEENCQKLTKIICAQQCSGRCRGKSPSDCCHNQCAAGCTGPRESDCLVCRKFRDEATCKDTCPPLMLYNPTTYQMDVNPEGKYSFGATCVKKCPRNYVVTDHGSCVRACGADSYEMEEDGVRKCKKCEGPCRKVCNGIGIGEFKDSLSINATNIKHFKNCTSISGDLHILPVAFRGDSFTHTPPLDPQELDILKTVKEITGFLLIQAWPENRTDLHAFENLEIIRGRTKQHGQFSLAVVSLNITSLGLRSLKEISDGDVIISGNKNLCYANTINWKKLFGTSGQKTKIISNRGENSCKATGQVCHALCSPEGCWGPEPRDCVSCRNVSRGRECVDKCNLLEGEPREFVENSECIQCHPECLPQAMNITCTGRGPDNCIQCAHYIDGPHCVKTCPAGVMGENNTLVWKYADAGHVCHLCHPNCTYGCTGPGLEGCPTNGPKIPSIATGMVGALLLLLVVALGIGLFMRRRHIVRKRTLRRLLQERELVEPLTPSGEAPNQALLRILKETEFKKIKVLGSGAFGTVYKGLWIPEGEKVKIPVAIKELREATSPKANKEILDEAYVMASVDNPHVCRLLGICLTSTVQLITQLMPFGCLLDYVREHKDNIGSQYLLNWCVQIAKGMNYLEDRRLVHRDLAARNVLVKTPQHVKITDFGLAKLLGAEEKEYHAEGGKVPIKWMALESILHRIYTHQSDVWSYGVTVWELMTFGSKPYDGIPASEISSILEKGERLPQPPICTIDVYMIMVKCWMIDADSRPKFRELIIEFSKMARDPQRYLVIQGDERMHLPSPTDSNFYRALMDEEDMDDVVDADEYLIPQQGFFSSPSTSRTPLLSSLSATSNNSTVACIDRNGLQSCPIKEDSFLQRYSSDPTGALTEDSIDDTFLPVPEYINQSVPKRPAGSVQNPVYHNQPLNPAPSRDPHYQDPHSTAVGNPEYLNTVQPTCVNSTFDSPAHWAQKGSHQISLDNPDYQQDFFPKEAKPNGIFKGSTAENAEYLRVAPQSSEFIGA

With `Brc1cccc(Nc2ncnc3cnc(NCCN4CCOCC4)nc23)c1`, the figures for the IC50 in assay [1] and in assay [2] were 3.1 nM and 0.81 nM, respectively. Take `Brc1cccc(Nc2ncnc3cnc(NCCc4c[nH]cn4)nc23)c1`: the results for the IC50 in assay [1] and in assay [2] were 5.1 nM and 0.25 nM, respectively.

Turning to `Cc1cccc(Nc2ncnc3cnc(N)nc23)c1`, the midpoint of inhibition in assay [2], the IC50, lay at 17 nM. As for `Cc1cccc(Nc2ncnc3cnc(Cl)nc23)c1`, the IC50 in assay [2] turned out to be 380 nM. Consider `Nc1ncc2ncnc(Nc3cccc(Br)c3)c2n1`, for which the IC50 in assay [2] is 1.5 nM.

In turn, `Cc1cccc(Nc2ncnc3cnc(NCCN4CCOCC4)nc23)c1` registered an IC50 in assay [2] of 2.3 nM. Take `Clc1ncc2ncnc(Nc3cccc(Br)c3)c2n1`: the IC50 in assay [2] is 82 nM. Turning to `CNc1ncc2ncnc(Nc3cccc(Br)c3)c2n1`, the IC50 stood at 30 nM in assay [1] and 0.76 nM in assay [2]. In assay [2], `Brc1cccc(Nc2ncnc3cnc(NCCCn4ccnc4)nc23)c1` showed an IC50 of 2.3 nM.

`Cc1cccc(Nc2ncnc3cnc(NCCc4c[nH]cn4)nc23)c1` registered an IC50 in assay [2] of 3 nM. `CN(C)CCNc1ncc2ncnc(Nc3cccc(Br)c3)c2n1` displayed an IC50 in assay [2] of 35 nM.

In turn, `CNc1ccc2ncnc(Nc3cccc(Br)c3)c2c1` came in with an IC50 in assay [3] of 11 nM. In assay [2], `Cc1cccc(Nc2ncnc3cnc(N(C)C)nc23)c1` yielded an IC50 of 4 nM. The same measure, in the same setting: the figure for `CNc1ncc2ncnc(Nc3ccccc3)c2n1` is 13 nM. For the compound `CN(C)c1cc2c(Nc3cccc(Br)c3)ncnc2cn1`, the IC50 came out at 2.6 nM in assay [3] and 12 nM in assay [4].

In assay [2], `Clc1ncc2ncnc(Nc3ccccc3)c2n1` registered an IC50 of 2550 nM. As to `COc1ncc2ncnc(Nc3cccc(Br)c3)c2n1`, in assay [2], the IC50 was 3.8 nM.
